According to patent US7220743B2, “Heterocyclic CB1 receptor antagonists” (Hoffmann-La Roche Inc., priority 2005, dated 2007):

Molecular target: T1, cannabinoid CB1 receptors (Homo sapiens, UniProt P21554)
T1 construct: expressed in transfected cells; host or cells: HEK cells, transient, Semliki Forest Virus system; membrane preparation
Assay: Affinity for cannabinoid CB1 receptors, [3H]-CP-55,940 radioligand binding on HEK cell membranes
Settings: CB1 receptor affinity, [3H]-CP-55,940, HEK membranes
Method: The affinity of the compounds of the invention for cannabinoid CB1 receptors was determined using membrane preparations of human embryonic kidney (HEK) cells in which the human cannabis […] receptor is transiently transfected using the Semliki Forest Virus system in conjunction with [3H]-CP-55,940 as radioligand. After incubation of a freshly prepared cell membrane preparation with the [3H]-ligand, with or without addition of compounds of the invention, separation of bound and free ligand was performed by filtration over glassfiber filters. Radioactivity on the filter was measured by liquid scintillation counting.

T1 sequence (P21554 whole entry): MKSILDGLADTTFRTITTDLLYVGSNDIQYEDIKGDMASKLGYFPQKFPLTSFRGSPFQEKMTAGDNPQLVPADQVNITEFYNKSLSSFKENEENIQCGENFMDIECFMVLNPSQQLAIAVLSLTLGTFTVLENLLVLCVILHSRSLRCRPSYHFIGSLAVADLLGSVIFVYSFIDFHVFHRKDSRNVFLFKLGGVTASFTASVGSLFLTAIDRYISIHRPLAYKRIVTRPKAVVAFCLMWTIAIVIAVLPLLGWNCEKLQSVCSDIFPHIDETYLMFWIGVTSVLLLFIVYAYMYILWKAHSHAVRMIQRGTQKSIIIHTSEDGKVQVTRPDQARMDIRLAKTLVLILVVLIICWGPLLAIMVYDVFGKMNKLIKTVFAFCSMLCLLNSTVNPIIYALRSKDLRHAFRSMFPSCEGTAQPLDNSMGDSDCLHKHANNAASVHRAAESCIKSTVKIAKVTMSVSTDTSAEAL

- IC50: 6 nM
Structure (SMILES): O=C(c1cc2c(cc1F)OC1(O2)c2ccccc2C=Cc2ccccc21)N1CCOCC1 [Example 3, 4-[(6-fluoro-spiro[1,3-benzodioxole-2,5′-[5H]dibenzo[a,d]cyclohepten]-5-yl)carbonyl]-morpholine]
